This note sets out measurements from patent US20220220106A1, “QUINOLINE COMPOUNDS AND PHARMACEUTICAL COMPOSITIONS AND USES THEREOF” (Academy of Military Medical Sciences, priority 2019, published 2022).

The test system of data set [1] is Enterovirus 71 (EV71) H strain. The experiment in a line: In vitro anti-EV71 activity (antiviral activity in RD cells, CellTiter-Glo). The following applies: for in vitro anti-EV71 activity, in words: EV71, RD cells; for IC50: Enterovirus A, 96 h, EV71 H strain, RD cells, 4 days, CellTiter-Glo, read-out: IC50. The format is cell-based. The procedure, abridged:
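RD cells infected with 100TCID50 EV71 in DMEM+2% FBS, with compound in 10-point three-fold dilutions, cultured 4 days at 37° C. Cell viability by CellTiter-Glo luminescence; inhibition rate relative to cell control fitted to S-curve for IC50. TD50 derived likewise; SI=TD50/IC50.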

For a further data set, the system named is RD cells. Kind of data set: Detection of cytotoxicity in RD cells (CellTiter-Glo). In kind it is cell-based. To be noted: 4 days, CellTiter-Glo, median toxic dose. The essentials: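 RD cells (1*10^5/mL) cultured 4 days at 37 °C with 10 compound concentrations from 3-fold dilution of a 400 μM pretreatment solution, final being 0.5 times that. Viability by CellTiter-Glo luminescence versus cell control; TD50 from S-curve fit; SI=TD50/IC50.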

For a further data set, the target named is T1, mTOR kinase (Homo sapiens, UniProt P42345).
T1 construct: purchased Thermo Fisher PV4753
T1 sequence (P42345 1360-2549 limits assumed): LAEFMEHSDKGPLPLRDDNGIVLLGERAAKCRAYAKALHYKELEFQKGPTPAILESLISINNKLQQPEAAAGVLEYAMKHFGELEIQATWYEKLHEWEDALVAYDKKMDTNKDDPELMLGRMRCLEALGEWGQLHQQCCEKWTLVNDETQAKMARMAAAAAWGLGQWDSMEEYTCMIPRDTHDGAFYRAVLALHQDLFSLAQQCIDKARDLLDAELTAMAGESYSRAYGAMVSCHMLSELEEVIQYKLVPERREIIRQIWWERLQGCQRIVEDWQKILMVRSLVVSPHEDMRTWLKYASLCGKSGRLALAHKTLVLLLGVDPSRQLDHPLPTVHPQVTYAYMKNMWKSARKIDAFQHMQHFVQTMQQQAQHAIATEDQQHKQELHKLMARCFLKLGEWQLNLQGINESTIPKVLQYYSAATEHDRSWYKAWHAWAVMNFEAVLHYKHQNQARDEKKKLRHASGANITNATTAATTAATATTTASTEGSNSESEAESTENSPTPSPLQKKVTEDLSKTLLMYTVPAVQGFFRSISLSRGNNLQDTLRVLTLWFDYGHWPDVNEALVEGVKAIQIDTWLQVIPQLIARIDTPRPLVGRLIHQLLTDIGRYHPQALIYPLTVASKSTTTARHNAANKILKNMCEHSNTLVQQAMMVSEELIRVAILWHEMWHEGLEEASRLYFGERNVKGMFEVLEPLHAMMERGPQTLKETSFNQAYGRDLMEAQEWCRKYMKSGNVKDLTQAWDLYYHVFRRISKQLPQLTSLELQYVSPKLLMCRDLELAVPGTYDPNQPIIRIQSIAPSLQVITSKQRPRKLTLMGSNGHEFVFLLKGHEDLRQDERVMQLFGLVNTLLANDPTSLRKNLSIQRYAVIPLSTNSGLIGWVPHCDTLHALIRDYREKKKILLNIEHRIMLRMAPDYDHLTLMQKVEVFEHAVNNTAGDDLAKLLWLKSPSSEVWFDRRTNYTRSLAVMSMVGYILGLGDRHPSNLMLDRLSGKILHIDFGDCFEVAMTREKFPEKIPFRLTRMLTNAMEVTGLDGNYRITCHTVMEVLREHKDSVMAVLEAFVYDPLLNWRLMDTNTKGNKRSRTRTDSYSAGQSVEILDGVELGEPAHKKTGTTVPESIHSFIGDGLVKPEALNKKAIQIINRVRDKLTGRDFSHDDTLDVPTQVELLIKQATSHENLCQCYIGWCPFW
The experiment in a line: In vitro inhibitory activity on mTOR kinase (TR-FRET, GFP-4E-BP1 substrate). The format is biochemical. To be noted: for IC50: 0.5 μg/mL mTOR, 0.4 μM GFP-4E-BP1, 3 μM ATP. The procedure:
Preparation of Reaction Buffers:
Basic buffer composition: 50 mM (mmol/L) HEPES (pH 7.5), 1 mM EGTA, 0.01% Tween-20, 10 mM MnCl2, 2 mM DTT (diluted from 500 mM before used).
(2) mTOR kinase buffer solution: 1650 μL of 2.5×mTOR kinase buffer solution was composed of 1640.2 μL of 1× basic buffer and 9.8 μL of mTOR (0.21 mg/mL stock solution), and the final concentration was 0.5 μg/mL.
(3) Detection buffer solution: 3960 μL of 2× detection buffer solution was composed of 3797.1 μL of TR-FRET buffer diluent (purchased from Thermo Fisher, catalog number: PV3574), 4.5 μL of Tb-anti-p4E-BP1 antibody (3.49 μM stock solution, purchased from Thermo Fisher, catalog number: PV4757) and 158 μL of EDTA (500 mM stock solution), and the final concentrations were 2 nM Tb-anti-p4E-BP1 antibody and 10 mM EDTA.
(1) 20 μL of 100% DMSO solution containing 5 mM compound to be tested was added to a 96-well plate.
(2) The compound was serially diluted 3 times in DMSO.
(3) 1 μL of the compound in the previous step was taken, diluted with 19 μL of mTOR kinase buffer, and transferred to another 96-well plate.
(4) 4 μL of mTOR kinase solution (purchased from Thermo Fisher, catalog number: PV4753) was added to a 384-well plate.
(5) 2 μL of the compound in G was taken out and added to the 384-well plate with mTOR kinase, and incubated at room temperature for 15 minutes.
(6) 4 μL of substrate solution was added to initiate the reaction.
The final concentrations of mTOR reaction solution were: 0.5 μg/mL mTOR, 0.4 μM GFP-4E-BP1, 3 μM ATP.
The final concentration of the DMSO solution was 1%.
(7) Incubation was performed for 60 minutes at room temperature.
(8) 10 μL of detection buffer was added. The final concentrations were 2 nM Tb-anti-p4E-BP1 antibody and 10 mM EDTA.
(9) Incubation was performed for 30 minutes at room temperature.
(10) TR-FRET value was read on MD5 multi-mode plate reader (Molecular Devices). The excitation wavelength was 340 nm, the emission wavelength 1 was 495 nm, and the emission wavelength 2 was 520 nm. The ratio of 520 nm/495 nm readings was calculated as TR-FRET value.
IC50 of compound was fitted by nonlinear regression equation:
Y=Bottom+(Top-Bottom)/(1+10^((LogIC50-X)*HillSlope));
X: common logarithm value of compound concentration; Y: TR-FRET value (520 nm/495 nm).

Molecules are shown by their SMILES.

Compound `CC(=O)/C=C/c1cnc2ccc(-c3ccc(N)cc3)cc2c1Nc1cccc(C(F)(F)F)c1` [HTL-2-35, (E)-6-(4-amino)phenyl-4-[3-(trifluoromethyl)phenyl]aminoquinoline-3-butenone] returned a melting point of 183 to 185 °C. Moreover, in data set [1], the “in vitro anti-EV71 activity, in words” value was “moderate anti-EV71 activity” and the IC50 is 3.7 ± 0.01 µM. In the data set with RD cells, this compound registered a TD50 of 5.14 ± 1.92 µM. Also, on mTOR kinase, the “inhibitory activity on mTOR kinase, in words” value (shortened to “inhibitory activity”) is recorded as “weak inhibitory activity” and the IC50 came out at 7770 nM.
`Cc1ccc(-c2ccc3ncc4oc(=O)n(-c5cccc(C(F)(F)F)c5)c4c3c2)cn1` [HTL-5-23, 8-[3-(6-methyl)pyridyl]-1-[3-(trifluoromethyl)phenyl]oxazolo[5,4-c] quinolin-2(1H)-one] gave a melting point of 299 to 300 °C. In data set [1], the “in vitro anti-EV71 activity, in words” value is “moderate inhibitory activity” and the IC50 was found to be 4.78 ± 1.73 µM. The same compound registered a TD50 with RD cells of 16.88 ± 5.46 µM. On mTOR kinase, the “inhibitory activity” value is given as “moderate inhibitory activity” and inhibition was half-maximal at 257 nM (IC50).
Regarding `NC(=O)NC/C=C/c1ccc2ncc3oc(=O)n(-c4cccc(C(F)(F)F)c4)c3c2c1` [HTL-6-34, (E)-8-(3-ureido-propenyl)-1-[3-(trifluoromethyl)phenyl]oxazolo[5,4-c]quinolin-2(1H)-one], in data set [1], the IC50 was more than 200 µM. This compound also showed a TD50 in the data set with RD cells of 66.64 ± 1.17 µM. Also, on mTOR kinase, the “inhibitory activity” value is listed as “moderate inhibitory activity” and the IC50 stood at 849 nM.
Regarding `COc1ncccc1-c1ccc2ncc3ccc(=O)n(-c4cccc(C(F)(F)F)c4)c3c2c1` [HTL-7-02, 9-[3-(2-methoxy)pyridyl]-2-oxo-1-[3-(trifluoromethyl)phenyl]-1,2-dihydrobenzo[h][1,6]naphthyridine], the IC50 in data set [1] is more than 200 µM. Also, the TD50 in the data set with RD cells was more than 200 µM. In addition, at mTOR kinase, the “inhibitory activity” value is listed as “moderate inhibitory activity” and the IC50 amounted to 974 nM.
The compound `Cc1noc(C)c1-c1ccc2ncc3ccc(=O)n(-c4cccc(C(F)(F)F)c4)c3c2c1` [HTL-7-12, 9-[4-(3,5-dimethyl)isoxazolyl]-2-oxo-1-[3-(trifluoromethyl)phenyl]-1,2-dihydrobenzo[h][1,6]naphthyridine] returned a melting point of 121 to 122 °C. In data set [1], the IC50 came to 36.9 ± 0.41 µM. The compound further had a TD50 in the data set on RD cells of more than 200 µM. The compound further yielded an IC50 on mTOR kinase of 1210 nM.
Consider `NC(=O)/C=C/c1ccc2ncc3ccc(=O)n(-c4cccc(C(F)(F)F)c4)c3c2c1` [HTL-7-24, (E)-9-(2-carbamoyl-vinyl)-2-oxo-1-[3-(trifluoromethyl)phenyl]-1,2-dihydrobenzo[h][1,6]naphthyridine], for which the melting point was 307 to 308 °C. For the same compound, in data set [1], the “in vitro anti-EV71 activity, in words” value is “strong inhibitory activity” and the IC50 turned out to be 0.09 ± 0.01 µM. This compound yielded a TD50 with RD cells of 0.15 ± 0.01 µM.
`NC(=O)NC/C=C/c1ccc2ncc3ccc(=O)n(-c4cccc(C(F)(F)F)c4)c3c2c1` [HTL-7-25, (E)-9-[3-ureido-propenyl]-2-oxo-1-[3-(trifluoromethyl)phenyl]-1,2-dihydrobenzo[h][1,6]naphthyridine] displayed a melting point of 150 to 151 °C. Also, in data set [1], the “in vitro anti-EV71 activity, in words” value was “moderate inhibitory activity” and the IC50 was found to be 0.41 ± 0.03 µM. This compound gave a TD50 with RD cells of 4.42 ± 0.45 µM.
For `CCOC(=O)/C=C/c1ccc2ncc3ccc(=O)n(-c4cccc(C(F)(F)F)c4)c3c2c1` [HTL-7-26, (E)-9-[2-ethoxycarbonyl-vinyl]-2-oxo-1-[3-(trifluoromethyl)phenyl]-1,2-dihydrobenzo[h][1,6]naphthyridine], in that order: 210 to 212 °C, “moderate inhibitory activity”, 0.28 ± 0.2 µM and 1.29 ± 0.57 µM.
As to `C=CCNc1ccc(-c2ccc3ncc4ccc(=O)n(-c5cccc(C(F)(F)F)c5)c4c3c2)cn1` [HTL-7-28, 9-[3-(6-allylamino)pyridyl]-2-oxo-1-[3-(trifluoromethyl)phenyl]-1,2-dihydrobenzo[h][1,6]naphthyridine], the melting point was 142 to 146 °C. The IC50 in data set [1] is 0.09 ± 0.01 µM. In addition, in the data set with RD cells, the TD50 turned out to be 0.23 ± 0.01 µM.
Consider `C#CCNc1ccc(-c2ccc3ncc4ccc(=O)n(-c5cccc(C(F)(F)F)c5)c4c3c2)cn1` [HTL-7-29, 9-[3-(6-propargylamino)pyridyl]-2-oxo-1-[3-(trifluoromethyl)phenyl]-1,2-dihydrobenzo[h][1,6]naphthyridine], for which the melting point lay within 139 to 141 °C. Moreover, the IC50 in data set [1] is 0.09 µM. The compound also gave a TD50 with RD cells of 0.29 ± 0.03 µM.
For `CCOC(=O)/C=C/c1ccc2ncc3oc(=O)n(-c4cccc(C(F)(F)F)c4)c3c2c1` [WSX-1-13, (E)-8-(2-ethoxycarbonyl-vinyl)-1-[3-(trifluoromethyl)phenyl]oxazolo[5,4-c]quinolin-2(1H)-one], the melting point lay within 221 to 224 °C. Moreover, in data set [1], the “in vitro anti-EV71 activity, in words” value is “weak inhibitory activity” and the IC50 came to 100 ± 2.34 µM. The compound further gave a TD50 in the data set with RD cells of 73.88 ± 3.52 µM.
Regarding `CCCCC(=O)Nc1ccc(-c2ccc3ncc4oc(=O)n(-c5cccc(C(F)(F)F)c5)c4c3c2)cn1` [WSX-1-24, 8-[3-(6-valerylamino)pyridyl]-1-[3-(trifluoromethyl)phenyl]oxazolo[5,4-c]quinolin-2(1H)-one], the melting point lay within 231 to 232 °C. In addition, the half-inhibitory concentration (IC50) in data set [1] was more than 200 µM. Besides, in the data set with RD cells, the TD50 stood at 4.27 ± 2.83 µM.
